Laboratory results reported in patent EP1006108A1, “3-Hydroxy-2(1H)-pyridinone or 3-hydroxy-4(1H)-pyridinone derivatives useful as reactive oxygen species (ROS) scavengers” (Cerebrus Pharmaceuticals Limited, priority 1998, dated 2000).
Structures can show the parent of a compound that is named as a salt.

Tests used:
[1] = test system: lipid peroxidation in rat brain homogenates; assay: Lipid peroxidation assay (ascorbic acid induced, MDA/TBA readout); assay type: biochemical; details: concentration inhibiting lipid peroxidation by 50%; rat cortex preparation, 500-µM L-ascorbic acid, 37 °C for 30 min
Procedure: Lipid peroxidation in rat brain homogenates is a general procedure used to measure the antioxidant capacity of molecules in a biological environment (Das N.P. and Ratty A.K., Biochem. Med. Metab. Biol. 1987, 37, 256-264).
Rat cortex was homogenised in 20 vols. of ice cold 0.32-M sucrose and centrifuged at 1,000 g for 10 min. The pellet was discarded whilst the resulting supernatant was centrifuged at 15,000 g for 20 min at 4 °C to yield p2 pellets. The pellet was re-suspended in ice-cold 50.0-mM phosphate buffer and centrifuged at 30,000 g for 20 min at 4 °C. The pellet was re-suspended in 30 vols, of 50.0-mM phosphate buffer and used immediately in the assay.
Assays contained 500-µM L-ascorbic acid to induce lipid peroxidation, plus various concentrations of test compound, with the tissue preparation in a total volume of 500 µL. This was incubated at 37 °C for 30 min. Lipid peroxidation was measured by adding to the reaction mixture, 300 µL 40 % (w/v) trichloroacetic acid, 150 µL 5.0-M HCl and 300 µL 2 % (w/v) 2-thiobarbituric acid (TBA). Samples were then heated at 90 °C in a water bath for 15 min, and centrifuged at 15,000 g for 10 min. The pink colour of the supernatant was assessed spectrophotometrically at a wavelength of 532 nm. The amount of malondialdehyde (MDA) in the samples was calculated using a standard curve prepared with malondialdehyde tetrabutylammonium salt (Das, N.P. and Ratty, A.K. Biochem. Med. Metab. Biol. 1987, 37, 256-264).
The IC50 values show the concentration of test compound required to inhibit the lipid peroxidation by 50%.

[2] = test system: cerebellar granule cell (CGC) cultures; assay: Iodoacetate (IAA) induced cell death, MTT-reductase readout; assay type: cell-based; details: Cell Toxicity, 30-µM IAA for 30 min plus 10-µM MK-801, then test compound, 24 hour incubation
Procedure: After 6-8 days in culture, cerebellar granule cell (CGC) cultures in 96-well plates (250,000 cells per well) were prepared for hypoglycaemia. Iodoacetate (IAA) was made up in a balanced salt solution (BSS) (NaCI, 154.0-mM; KCl, 5.6-mM; MgCl2, 1.0-mM; CaCl2, 2.5-mM; N-[2-hydroxyethyl]piperazine-N'-[2-ethanesulfonic acid] (HEPES), 10.0-mM; D-glucose, 5.6-mM; pH 7.4) and any neuroprotective agents were made up in pre-warmed tissue culture media and allowed to equilibrate in a controlled environment (5 % CO2, 95 % air). The assay was initiated by aspiration of the maintenance media, which was replaced by either BSS (control) or 30-µM IAA in BSS, both solutions containing 10-µM of the NMDA receptor antagonist MK-801. The exposure to IAA was for 30 min only at 37 °C, after which time the BSS was aspirated and replaced with fresh, pre-equilibriated maintenance media containing various concentrations of test compound. All conditions were performed at least in duplicate in each 96 well plate. The final volume for each well was always 200 µL. Following a 24 hour incubation, visual inspection of the cells was followed by quantification of neuronal cell death by measuring 3-[4,5-dimethylthiazol-2-yl]-2,5-diphenyltetrazolium bromide (MTT)-reductase activity as described previously (Malcolm et al., J. Neurochem. 1996, 66, 2350-2360).

oxidation of DCFH to DCF = assay: Measurement of intracellular oxidative stress (DCFH-DA fluorescence); assay type: cell-based; details: 0.5 h, concentration blocking oxidation of DCFH to DCF by 50%, 30.0-µM IAA, 30 minutes, read from Figure 1
Procedure: IAA-stimulated fluorescence values are given as a function of concentration of the test compound.
Intracellular oxidative stress was measured using the oxidant-sensitive fluorescent dye 2',7'-dichlorodihydrofluorescein diacetate (DCFH-DA) (Molecular Probes). The non-fluorescent DCFH-DA readily crosses cell membranes whereupon it is trapped within the cytoplasm by deacetylation to the non-membrane permeable form dichlorodihydrofluorescein (DCFH). Upon oxidation, DCFH yields the highly fluorescent product dichlorofluorescein (DCF). Briefly, growth medium was aspirated from cultures and replaced with 200 µl BSS (plus 10.0-µM MK-801) or BSS (plus 10.0-µM MK-801) containing 30.0-µM IAA alone or in combination with various concentrations of antioxidants. After incubation at 37 °C for 30 minutes, cultures were aspirated once more and 10.0-µM DCFH-DA (200 µL) added to all wells. After a further 20 minute incubation at 37 °C, fluorescence was measured in a Cytofluor II fluorescent plate reader (λex=485nm; λem=530nm). Background fluorescence values from wells treated with 2 % Triton X-100 were subtracted from both basal and stimulated fluorescence values and the effects of test compounds expressed as a percent inhibition of the IAA-stimulated fluorescence increase over basal.
The EC50 value gives the effective concentration of test compound required to block the oxidation of DCFH to DCF by 50%. […]

Row | Compound | IC50 [1] [µM] | EC50 [2] [µM] | EC50 (oxidation of DCFH to DCF) [µM]
1 | 2-(1,4-Dihydro-3-hydroxy-2-methyl-4-oxo-1-pyridinyl)ethyl 3,4-dihydro-6-hydroxy-2,5,7,8-tetramethyl-2H-benzopyran-2-carboxylate [Example 3] | 1.5 | 1.8 | –
2 | Cc1c(O)c(=O)ccn1CCC(=O)NCCCc1cc(C(C)(C)C)c(O)c(C(C)(C)C)c1 [Example 1, 3-(1,4-Dihydro-3-hydroxy-2-methyl-4-oxo-1-pyridinyl)-N-(3-(3,5-di-tert-butyl-4-hydroxyphenyl)propyl)propanamide] | 0.2 | 0.3 | –
3 | Cc1c(O)c(=O)ccn1CCNCc1cc(C(C)(C)C)c(O)c(C(C)(C)C)c1 [Example 2, 1-[2-(3,5-Di-tert-butyl-4-hydroxybenzylamino)ethyl]-3-hydroxy-2-methyl-4(1H)-pyridinone dihydrochloride] | 0.2 | 3.3 | –
4 | Cc1c(C)c2c(c(C)c1O)CCC(C)(CNC(=O)CCn1ccc(=O)c(O)c1C)O2 (stereo not drawn) [Example 5, 3-(1,4-Dihydro-3-hydroxy-2-methyl-4-oxo-1-pyridinyl)-N-(3,4-dihydro-6-hydroxy-2,5,7,8-tetramethyl-2H-benzopyran-2-yl)methylpropanamide] | 0.8 | 2.6 | –
5 | Cc1c(C)c2c(c(C)c1O)CCC(C)(COCCn1ccc(=O)c(O)c1C)O2 (stereo not drawn) [Example 6] | 0.2 | ~3 | –
6 | Cc1c(C)c2c(c(C)c1O)CCC(C)(CNCCCCn1ccc(=O)c(O)c1C)O2 (stereo not drawn) [Example 7, 1-[4-(3,4-Dihydro-6-hydroxy-2,5,7,8-tetramethyl-2H-benzopyran-2-yl)methylamino)butyl]-3-hydroxy-2-methyl-4(1H)-pyridinone dihydrochloride] | 0.1 | 0.6 | –
7 | Cc1c(C)c2c(c(C)c1O)CC(CC(=O)NCCn1ccc(=O)c(O)c1C)O2 (stereo not drawn) [Example 8, N-(2-(1,4-Dihydro-3-hydroxy-2-methyl-4-oxo-1-pyridinyl)ethyl)-2,3-dihydro-5-hydroxy-4,6,7-trimethylbenzofuran-2-acetamide] | 0.5 | 3.8 | –
8 | Cc1c(C)c2c(c(C)c1O)CC(CC(=O)OCCn1ccc(=O)c(O)c1C)O2 (stereo not drawn) [Example 9, 2-(1,4-Dihydro-3-hydroxy-2-methyl-4-oxo-1-pyridinyl)ethyl 2,3-dihydro-5-hydroxy-4,6,7-trimethylbenzofuran-2-acetate] | 0.4 | 1.6 | –
9 | Cc1c(C)c2c(c(C)c1O)CC(CCOC(=O)CCn1ccc(=O)c(O)c1C)O2 (stereo not drawn) [Example 10, 2-(2,3-Dihydro-5-hydroxy-4,6,7-trimethylbenzofuran-2-yl)ethyl 3-(1,4-dihydro-3-hydroxy-2-methyl-4-oxo-1-pyridinyl)propanoate] | 0.2 | ~5.3 | 0.8
10 | N-(2-(1,4-Dihydro-3-hydroxy-2-methyl-4-oxo-1-pyridinyl)ethyl)-3,4-dihydro-6-hydroxy-2,5,7,8-tetramethyl-2H-benzopyran-2-carboxamide [Example 4] | 1 | 1.8 | –
